# In US7413747B2, “Transdermal therapeutic system for treating Parkinsonism” (LTS Lohmann Therapie-Systeme AG, priority 1998, dated 2008):
# Key:
# [1] = Solubility of the active substance in polyacrylate adhesives; type: physicochemical; conditions: polyacrylate adhesive matrix; ambient temperature
# Description: (§1) The transdermal therapeutic system according to this invention, of the kind mentioned at the beginning and developed in accordance with the above, is essentially characterized by a matrix on the basis of an acrylate-based or silicone-based non-aqueous polymer adhesive system having a solubility for the free D2-agonist base (−)-5,6,7,8-tetrahydro-6-[propyl-[2-(2-thienyl)ethyl]amino]-1-naphthalenol of >5% (w/w), which matrix is substantially free of inorganic silicate particulates. The solubility is determined at ambient temperature.
# In systems wherein the active substance is only partially dissolved the concentration of the dissolved active substance is equal to the saturation concentration and thus has the maximum thermodynamic activity under these conditions. In general, it is, above all, the kind and quantity of the free functional groups in the adhesive which are important for the dissolving capacity of the polyacrylate adhesives. […] Such a system must therefore contain the active substance in a concentration of at least 10% (w/w) in order to come sufficiently near to the maximal thermodynamic activity. For the hydrochloride of (−)-5,6,7,8-tetrahydro-6-[propyl-[2-(2-thienyl)ethyl]amino]-1-naphthalenol the solubility in polyacrylates having 5-10% (w/w) is much lower, so that in such systems the active substance is preferably only partially dissolved.
# [2] = Solubility (saturation capacity) of the active substance in silicone adhesives; type: physicochemical; conditions: for saturation capacity in silicone adhesives: silicone adhesive without solubility-increasing additive
# Description: as §1
# This is sufficient to dissolve 10 mg active substance in a 20 cm^2 large patch having a coat weight of the matrix of 50 g/m^2. Since with transdermal patch systems one must always assume that only about 50% of the active substance employed will be available during the period of application, given a daily dose in the range of 1-10 mg of the active substance a plaster size of between 2 and 40 cm^2 can be expected to be sufficient to achieve therapeutic plasma levels.
# [3] = Permeation studies utilizing Franz diffusion cells and human epidermis; type: in vitro ADME; conditions: skin, due to hydrophilic properties
# Description: The finished plasters were used in permeation studies utilizing Franz diffusion cells and human epidermis. It will be seen that all plasters are capable of systemically providing a sufficient amount of active substance through the skin. […] It will also be seen that the silicone adhesive-based plasters, although having a considerably lower active substance content, deliver approximately the same quantity of active substance via the skin as the systems based on polyacrylate adhesives.
SMILES,solubility in polyacrylate adhesives [1],saturation capacity in silicone adhesives [2],passing the barrier of the stratum corneum [3],solubility in amine-resistant silicone adhesive ([2]; about 1.5-5% (w/w) of polyvinylpyrrolidone in the adhesive),dissolving capacity for the free base in silicone adhesive matrices ([2]; silicone adhesive admixed with a substance having increased solubility for the active substance (e.g. polyvinylpyrrolidone))
"CCCN(CCc1cccs1)C1CCc2c(O)cccc2C1.Cl (single isomer, unassigned; (-)) [(−)-5,6,7,8-tetrahydro-6-[propyl-[2-(2-thienyl)ethyl]amino]-1-naphthalenol hydrochloride]",5-10 % (w/w),practically insoluble,only poorly,,
"CCCN(CCc1cccs1)C1CCc2c(O)cccc2C1 (single isomer, unassigned; (-)) [(−)-5,6,7,8-tetrahydro-6-[propyl-[2-(2-thienyl)ethyl]amino]-1-naphthalenol]",15-35 % (w/w),about 5 % (w/w),,10-15 % (w/w),up to 40 % (w/w)
